# Measured values reported in patent US8853208B2, “Amino alcohol-substituted arylthienopyrimidinones, process for their preparation and their use as medicaments” (Sanofi, priority 2006, dated 2014).
# Molecular target: T1, human MCH receptor (Homo sapiens, UniProt Q99705)
# T1 construct: expressed in transfected cells
# Test: Functional IC50 of MCH1R antagonists: cellular calcium flux (FLIPR) after MCH in recombinant HEK293 cells
# Assay type: cell-based
# Details: calcium flux after addition of agonist (MCH), recombinant HEK293 cell line expressing the human MCH receptor
# Excerpt: Influence on the MCH receptor in vitro; determination of functional IC50 values of MCH1R antagonists
# Cloning of the cDNA for the human MCH receptor, preparation of a recombinant HEK293 cell line which expresses the human MCH receptor, and functional measurements with the recombinant cell line took place in analogy to the description by Audinot et al. (J. Biol. Chem. 276, 13554-13562, 2001). A difference from the reference was, however, the use of the plasmid pEAK8 from EDGE Biosystems (USA) for the construction of the expression vector. The host used for the transfection was a transformed HEK cell line named “PEAK Stable Cells” (likewise from EDGE Biosystems). Functional measurements of the cellular calcium flux after addition of agonist (MCH) in the presence of ligand of the invention took place with the aid of the FLIPR apparatus from Molecular Devices (USA), using protocols of the apparatus manufacturer. The compounds of the invention show a significant inhibition (>30%) of the signal induced by the agonist at a concentration of 100 μM, preferably at 10 μM, particularly preferably at 1 μM, very particularly preferably at 100 nM and even more particularly preferably at 10 nM. Besides the functional activity it is also possible to determine the affinity for the MCH1R according to Audinot et al. (Br. J. Pharmacol. 2001, 133, 371-378).
# T1 sequence (Q99705 whole entry): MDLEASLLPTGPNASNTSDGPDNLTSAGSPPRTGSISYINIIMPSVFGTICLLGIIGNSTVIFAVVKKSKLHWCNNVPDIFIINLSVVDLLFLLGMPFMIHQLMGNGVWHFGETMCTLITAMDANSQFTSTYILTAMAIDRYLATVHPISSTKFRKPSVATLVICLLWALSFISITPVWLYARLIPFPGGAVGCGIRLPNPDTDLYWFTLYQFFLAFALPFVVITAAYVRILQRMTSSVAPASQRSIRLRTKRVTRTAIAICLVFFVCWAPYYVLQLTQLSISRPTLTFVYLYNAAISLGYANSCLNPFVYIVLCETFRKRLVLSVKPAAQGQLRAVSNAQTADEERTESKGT
row,SMILES,IC50 [nM]
1,CN1[C@@H]2CC[C@H]1C[C@@H](Oc1ccc(-n3cnc4cc(CCC5CC5)sc4c3=O)cc1)C2 [Example 7],940
2,"CN1[C@@H]2CC[C@H]1C[C@@H](Oc1ccc(-n3cnc4cc(CCC5(O)CCCC5)sc4c3=O)cc1)C2 [Example 11, 6-[2-(1-Hydroxycyclopentyl)ethyl]-3-[4-((1R,3R,5S)-8-methyl-8-azabicyclo[3.2.1]oct-3-yloxy)phenyl]-3H-thieno[3,2-d]pyrimidin-4-one]",1290
3,CCC(C)(O)CCc1cc2ncn(-c3ccc(O[C@H]4C[C@H]5CC[C@@H](C4)N5C)c(Cl)c3)c(=O)c2s1 (some centres unmarked) [Example 20],1030
4,COCCCc1cc2ncn(-c3ccc(O[C@H]4C[C@H]5CC[C@@H](C4)N5C)c(C)c3)c(=O)c2s1 [Example 22],400
5,COCCCc1cc2ncn(-c3ccc(O[C@H]4C[C@H]5CC[C@@H](C4)N5C)c(Cl)c3)c(=O)c2s1 [Example 23],530
6,CCC(O)CCc1cc2ncn(-c3ccc(O[C@H]4C[C@H]5CC[C@@H](C4)N5C)c(C)c3)c(=O)c2s1 (some centres unmarked) [Example 27],140
7,"COc1cc(-n2cnc3cc(C#CC4CC4)sc3c2=O)ccc1OCCN1CCCC1 [Example 42, 6-Cyclopropylethynyl-3-[3-methoxy-4-(2-pyrrolidin-1-ylethoxy)phenyl]-3H-thieno[3,2-d]-pyrimidin-4-one]",110
8,CC(O)C#Cc1cc2ncn(-c3ccc(O[C@H]4C[C@H]5CC[C@@H](C4)N5C)cc3)c(=O)c2s1 (some centres unmarked) [Example 50],240
9,COC(C)(C)C#Cc1cc2ncn(-c3ccc(O[C@H]4C[C@H]5CC[C@@H](C4)N5C)cc3)c(=O)c2s1 [Example 56],840
10,Cc1cc(-n2cnc3cc(C#CC(C)O)sc3c2=O)ccc1O[C@H]1C[C@H]2CC[C@@H](C1)N2C (some centres unmarked) [Example 57],120
11,COc1cc(-n2cnc3cc(C#CC(C)O)sc3c2=O)ccc1O[C@H]1C[C@H]2CC[C@@H](C1)N2C (some centres unmarked) [Example 58],340
12,CN1[C@@H]2CC[C@H]1C[C@@H](Oc1ccc(-n3cnc4cc(C#CC5CC5)sc4c3=O)cc1)C2 [Example 62],100
13,CS(=O)(=O)CCN1[C@@H]2CC[C@H]1C[C@@H](Oc1ccc(-n3cnc4cc(C#CC5CC5)sc4c3=O)cc1)C2 [Example 63],560
14,O=c1c2sc(C#CC3CC3)cc2ncn1-c1ccc(OCCN2CCCC2)c(F)c1 [Example 69],200
15,CN1[C@@H]2CC[C@H]1CC(Oc1ccc(-n3cnc4cc(N5C[C@H]6CCCN6C5=O)sc4c3=O)cc1)C2 (some centres unmarked) [Example 77],9650
16,CC(C)N(C)C(=O)c1cc2ncn(-c3ccc(O[C@H]4C[C@H]5CC[C@@H](C4)N5C)cc3)c(=O)c2s1 [Example 82],6880
17,CN1[C@@H]2CC[C@H]1C[C@@H](Oc1ccc(-n3cnc4cc(C(=O)N5CCCCC5)sc4c3=O)cc1)C2 [Example 84],13000
18,"CN(C)CCOc1ccc(-n2cnc3cc(COCC4CCC4)sc3c2=O)cc1 [Example 93, 6-Cyclobutylmethoxymethyl-3-[4 (2-dimethylaminoethoxy)phenyl]-3H-thieno[3,2-d]pyrimidin-4-one]",930
19,CCCCC(=O)c1cc2ncn(-c3ccc(O[C@H]4C[C@H]5CC[C@@H](C4)N5C)cc3)c(=O)c2s1 [Example 114],1860
20,"CN1[C@@H]2CC[C@H]1C[C@@H](Oc1ccc(-n3cnc4cc(C(O)C5CCCC5)sc4c3=O)cc1)C2 (stereo partly drawn) [Example 121, 6-(Cyclopentylhydroxymethyl)-3-[4-((1S,3R,5R)-8-methyl-8-azabicyclo[3.2.1]oct-3-yloxy)phenyl]-3H-thieno[3,2-d]pyrimidin-4-one]",750
21,CCCCC(O)c1cc2ncn(-c3ccc(O[C@H]4C[C@H]5CC[C@@H](C4)N5C)cc3)c(=O)c2s1 (some centres unmarked) [Example 127],1000
22,CN1[C@@H]2CC[C@H]1C[C@@H](Oc1ccc(-n3cnc4cc(C(O)CC(C)(C)C)sc4c3=O)cc1)C2 (some centres unmarked) [Example 135],2250
23,CN1[C@@H]2CC[C@H]1CC(Oc1ccc(-n3cnc4cc(C5=CCOCC5)sc4c3=O)cc1)C2 (some centres unmarked) [Example 142],2590
24,CN1[C@@H]2CC[C@H]1C[C@@H](Oc1ccc(-n3cnc4cc(CC(O)C5CCC5)sc4c3=O)cc1)C2 (some centres unmarked) [Example 166],1090
25,CN1[C@@H]2CC[C@H]1C[C@@H](Oc1ccc(-n3cnc4cc(CC(O)c5ccco5)sc4c3=O)cc1)C2 (some centres unmarked) [Example 169],290
26,"CN1[C@@H]2CC[C@H]1C[C@@H](Oc1ccc(-n3cnc4cc(CCc5ccco5)sc4c3=O)cc1)C2 [Example 171, 6-(2-Furan-2-ylethyl)-3-[4-((1S,3R,5R)-8-methyl-8-azabicyclo[3.2.1]oct-3-yloxy)phenyl]-3H-thieno[3,2-d]pyrimidin-4-one]",210
27,CCC(O)C#Cc1cc2ncn(-c3ccc(OC4C[C@H]5CC[C@@H](C4)N5C)c(CCC(O)CC)c3)c(=O)c2s1 (some centres unmarked) [Example 178],1270
28,CCc1cc(-n2cnc3cc(C#CC(O)CC)sc3c2=O)ccc1O[C@H]1C[C@H]2CC[C@@H](C1)N2C (some centres unmarked) [Example 181],210
29,CCC(O)CCc1cc2ncn(-c3ccc(OC4C[C@H]5CC[C@@H](C4)N5C)c(CCCO)c3)c(=O)c2s1 (some centres unmarked) [Example 190],1350
